In PubChem BioAssay (NCI) one finds GI50 and TGI data, which are given here for seven compounds.

Several values for one entry are separate records, joined by “and”; a condition that tells them apart may be missing. Equal entries are not always repeated.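 Compound exposure: 48 hours, 5 concentrations, 96-well plates. At the GI50, growth is halved. TGI: total growth inhibition.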

Test systems include CCRF-CEM leukemia; IGROV1 ovarian; KM12 colon; M14 melanoma; NCI-H23 lung; NCI-H460 lung; OVCAR-8 ovarian; RPMI-8226 leukemia; RXF 393 renal; SF-268 CNS.
Holding throughout (assay): DTP human tumour cell line panel, 48 h

For the compound `Cc1nn(-c2ccc(Br)cc2)c(C)c1CC(=O)c1cc(O)ccc1O`, the GI50 – broadly, the concentration giving 50% growth inhibition – in the assay on CCRF-CEM leukemia was 19 µM; with IGROV1 ovarian, 17.2 µM; in the assay on KM12 colon, 5.91 µM; with M14 melanoma, 29.6 µM; in the assay with NCI-H23 lung, 10.9 µM; with NCI-H460 lung, 8.34 µM. For the same compound, the GI50 was 8.09 µM in the assay with OVCAR-8 ovarian, 8.21 µM with RPMI-8226 leukemia, 9.01 µM in the assay on RXF 393 renal and 5.6 µM in the assay with SF-268 CNS. In addition, the total growth inhibition concentration (TGI) (commonly the concentration at which net growth stops) in the assay with CCRF-CEM leukemia is greater than 50 µM; with IGROV1 ovarian, greater than 50 µM; with KM12 colon it was greater than 50 µM; in the assay with M14 melanoma, greater than 50 µM; in the assay with NCI-H23 lung, 35.7 µM; in the assay on NCI-H460 lung it was 19.3 µM. Besides, the total growth inhibition concentration (TGI) with OVCAR-8 ovarian was 23.2 µM; in the assay on RPMI-8226 leukemia, greater than 50 µM; with RXF 393 renal, 27.8 µM; in the assay on SF-268 CNS it was 17.6 µM.

For the compound `O=C(/C=C/c1cccnc1)c1ccccc1O`, the GI50 is 22.7 µM with CCRF-CEM leukemia; 20.1 µM in the assay with IGROV1 ovarian; 32.2 µM in the assay with KM12 colon; 16.9 µM in the assay with M14 melanoma; 16.9 µM with NCI-H23 lung; 30.8 µM with NCI-H460 lung. In addition, the GI50 with OVCAR-8 ovarian is 31.5 µM; in the assay with RPMI-8226 leukemia it was 12.9 µM; with RXF 393 renal, 13.8 µM; in the assay on SF-268 CNS, 26.9 µM. Further, the total growth inhibition concentration (TGI) with CCRF-CEM leukemia is greater than 100 µM; with IGROV1 ovarian it was 50 µM; with KM12 colon, greater than 100 µM; with M14 melanoma it was 34.1 µM; in the assay with NCI-H23 lung it was 36 µM; in the assay on NCI-H460 lung it was greater than 100 µM. Moreover, the concentration for total growth inhibition (TGI) is greater than 100 µM in the assay with OVCAR-8 ovarian, 39 µM in the assay on RPMI-8226 leukemia, 27.3 µM with RXF 393 renal and 97.6 µM with SF-268 CNS.

On to `O=C1C(N2C(=O)c3ccccc3C2=O)CN1C(COCc1ccccc1)c1ccc(OCc2ccccc2)cc1` (stereo not drawn), for which the TGI in the assay with CCRF-CEM leukemia, with IGROV1 ovarian, in the assay on KM12 colon, in the assay with M14 melanoma, in the assay with NCI-H23 lung and in the assay on NCI-H460 lung was greater than 100 µM each time. Further, the TGI in the assay with OVCAR-8 ovarian, in the assay with RPMI-8226 leukemia, with RXF 393 renal and in the assay on SF-268 CNS was greater than 100 µM in each case.

In the case of `C[C@]12CC[C@H]3[C@@H](C[C@@H]4N=C(c5ccc(O)cc5)S[C@@]45C[C@H](O)CC[C@]35C)[C@@H]1CC[C@@H]2O`, the GI50 in the assay on CCRF-CEM leukemia was 2.05 µM; with IGROV1 ovarian, 11.1 µM; in the assay on KM12 colon, 7.24 µM; in the assay with M14 melanoma, 2.86 µM; in the assay on NCI-H23 lung, 14 µM; in the assay on NCI-H460 lung, 4.94 µM. Further, the GI50 in the assay on OVCAR-8 ovarian is 40.9 µM; in the assay with RPMI-8226 leukemia it was 0.378 µM; in the assay with RXF 393 renal it was 0.377 µM; with SF-268 CNS, 5.32 µM. For the same compound, the TGI was 47.2 µM in the assay with CCRF-CEM leukemia; greater than 100 µM in the assay on IGROV1 ovarian; greater than 100 µM in the assay on KM12 colon; 29.3 µM in the assay on M14 melanoma; greater than 100 µM in the assay with NCI-H23 lung; greater than 100 µM with NCI-H460 lung. Moreover, the concentration for total growth inhibition (TGI) was greater than 100 µM in the assay on OVCAR-8 ovarian, 2.5 µM with RPMI-8226 leukemia, 1.31 µM with RXF 393 renal and greater than 100 µM with SF-268 CNS.

Take `NC[C@@](O)(c1ccc(Cl)cc1)c1ccc(-c2cn[nH]c2)cc1`: the GI50 with CCRF-CEM leukemia was 2.41 µM and 0.824 µM; in the assay with IGROV1 ovarian, 0.43 µM and 0.272 µM; in the assay on KM12 colon it was 3.44 µM and 3.48 µM; in the assay with M14 melanoma it was 2.34 µM; in the assay on NCI-H460 lung it was 3.08 µM and 2.83 µM; in the assay on OVCAR-8 ovarian, 1.63 µM. Further, the GI50 is 2.23 µM in the assay on RPMI-8226 leukemia; 0.298 µM and 0.328 µM in the assay on RXF 393 renal; 1.24 µM and 1.28 µM with SF-268 CNS. The TGI in the assay with IGROV1 ovarian is 1.46 µM; with KM12 colon, greater than 100 µM; in the assay with M14 melanoma it was 5.98 µM; in the assay on NCI-H23 lung it was greater than 100 µM; with NCI-H460 lung, greater than 100 µM; in the assay with OVCAR-8 ovarian, 3.43 µM. Besides, the TGI with RPMI-8226 leukemia was 4.95 µM; with RXF 393 renal, 2.51 µM and 2.05 µM; in the assay on SF-268 CNS it was greater than 100 µM.

Regarding `COc1ccc(/C=C/C(=O)c2ccc(Nc3ccnc4cc(Cl)ccc34)cc2)cc1`, the GI50 was 5.64 µM in the assay on CCRF-CEM leukemia; greater than 100 µM in the assay on IGROV1 ovarian; greater than 79.4 µM in the assay on KM12 colon; greater than 100 µM in the assay with M14 melanoma; greater than 100 µM with NCI-H23 lung; greater than 100 µM in the assay with NCI-H460 lung. For the same compound, the GI50 with OVCAR-8 ovarian was greater than 100 µM; in the assay with RPMI-8226 leukemia, 4.94 µM; with RXF 393 renal, greater than 100 µM; in the assay with SF-268 CNS, greater than 100 µM. Besides, the TGI in the assay with CCRF-CEM leukemia, with IGROV1 ovarian, in the assay on KM12 colon, in the assay with M14 melanoma, in the assay with NCI-H23 lung and with NCI-H460 lung was greater than 100 µM throughout. The TGI is greater than 100 µM in the assay with OVCAR-8 ovarian, greater than 55.6 µM in the assay with RPMI-8226 leukemia, greater than 100 µM with RXF 393 renal and greater than 100 µM with SF-268 CNS.

In the case of `CCCN1CCN(c2ccc3nc(-c4ccc5nc(-c6ccc(OCC)c(OCC)c6)[nH]c5c4)[nH]c3c2)CC1`, the 50% growth inhibitory concentration (GI50) in the assay on CCRF-CEM leukemia is 0.394 µM; in the assay on IGROV1 ovarian it was 0.475 µM; with KM12 colon, 0.684 µM; in the assay with M14 melanoma, 0.195 µM; with NCI-H23 lung, 0.251 µM; in the assay with NCI-H460 lung it was 0.387 µM. Also, the GI50 with OVCAR-8 ovarian was 0.451 µM; with RPMI-8226 leukemia, 0.387 µM; in the assay with RXF 393 renal, 0.27 µM; with SF-268 CNS, 1.6 µM. For the same compound, the TGI came out at 3.07 µM in the assay on CCRF-CEM leukemia; 2.42 µM with IGROV1 ovarian; 2.08 µM with KM12 colon; 1.39 µM in the assay with M14 melanoma; 0.765 µM in the assay on NCI-H23 lung; 1.35 µM in the assay on NCI-H460 lung. The TGI was 2.16 µM in the assay on OVCAR-8 ovarian, 1.89 µM with RPMI-8226 leukemia, 0.83 µM with RXF 393 renal and 6.1 µM with SF-268 CNS.
